Read-outs that look alike come from different tables or passages of the source. Blank lines part the entries; values can stand above or below the compound they belong to.
Experiments:
[1] = biological target: T1, human recombinant adrenergic α2B receptor (Homo sapiens, UniProt P18089); experiment: Radioligand binding, adrenergic α2B ([3H]Rauwolscine); conditions: for Percentage inhibition of ligand binding, Adrenergic α2B / Percentage inhibition of ligand binding, Adrenergic α2B (0.03 μM): 0.03 µM
T1 construct: expressed in transfected cells; host or cells: CHO-K1
T1 sequence (P18089 1-450): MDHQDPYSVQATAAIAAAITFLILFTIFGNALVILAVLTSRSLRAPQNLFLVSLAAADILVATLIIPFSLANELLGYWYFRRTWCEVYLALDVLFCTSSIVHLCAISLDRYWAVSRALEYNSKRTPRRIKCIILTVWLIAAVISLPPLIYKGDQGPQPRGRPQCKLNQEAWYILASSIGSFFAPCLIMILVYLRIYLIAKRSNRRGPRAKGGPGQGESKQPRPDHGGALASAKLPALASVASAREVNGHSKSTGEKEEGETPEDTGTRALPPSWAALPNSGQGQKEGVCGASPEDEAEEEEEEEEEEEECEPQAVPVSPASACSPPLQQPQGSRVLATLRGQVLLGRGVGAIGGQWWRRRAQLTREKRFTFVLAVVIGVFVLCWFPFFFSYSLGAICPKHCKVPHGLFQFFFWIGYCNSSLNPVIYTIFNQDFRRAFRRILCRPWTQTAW
Procedure, shortened: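 Readout: percent inhibition of specific [3H]Rauwolscine binding, measured by filtration and counting. Conditions: CHO-K1 cell-expressed receptor, 2.5 nM radioligand, 60 min, 25° C, Tris-HCl pH 7.4 buffer with MgCl2, EDTA, BSA. Non-specific binding: 10 μM Prazosin.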

[2] = biological target: T2, human recombinant adrenergic α2A receptor (Homo sapiens, UniProt P08913); experiment: Radioligand binding, adrenergic α2A ([3H]MK-912); conditions: for Percentage inhibition of ligand binding, Adrenergic α2A / Percentage inhibition of ligand binding, Adrenergic α2A (0.1 μM): 0.1 µM
T2 construct: expressed in transfected cells; host or cells: insect Sf9 cells
T2 sequence (P08913 1-465): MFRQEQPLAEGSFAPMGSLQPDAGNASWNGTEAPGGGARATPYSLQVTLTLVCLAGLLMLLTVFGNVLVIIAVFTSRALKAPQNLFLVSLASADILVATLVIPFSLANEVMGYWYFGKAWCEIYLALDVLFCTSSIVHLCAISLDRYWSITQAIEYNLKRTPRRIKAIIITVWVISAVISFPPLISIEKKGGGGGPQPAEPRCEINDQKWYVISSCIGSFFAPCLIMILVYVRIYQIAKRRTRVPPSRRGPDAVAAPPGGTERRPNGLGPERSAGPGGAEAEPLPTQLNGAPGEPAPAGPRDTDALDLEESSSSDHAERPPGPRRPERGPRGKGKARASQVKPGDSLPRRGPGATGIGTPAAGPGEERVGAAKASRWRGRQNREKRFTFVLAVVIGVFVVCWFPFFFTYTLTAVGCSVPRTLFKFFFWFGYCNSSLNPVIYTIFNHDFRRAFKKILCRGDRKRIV
Procedure, shortened: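 Sf9-expressed receptor was incubated with compound for 60 min at 25 °C in modified Tris-HCl buffer, pH 7.4. Nonspecific binding was taken as that remaining with 10 μM WB-4101.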

[3] = biological target: T3, rat adrenergic α1B receptor (Rattus norvegicus, UniProt P15823); experiment: Radioligand binding, adrenergic α1B ([3H]Prazosin); conditions: for Percentage inhibition of ligand binding, Adrenergic α1B / Percentage inhibition of ligand binding, Adrenergic α1B (0.1 μM): 0.1 µM
T3 construct: rat adrenergic α1B receptor obtained from Wistar Rat liver; from tissue; host or cells: Wistar rat liver
T3 sequence (P15823 1-515): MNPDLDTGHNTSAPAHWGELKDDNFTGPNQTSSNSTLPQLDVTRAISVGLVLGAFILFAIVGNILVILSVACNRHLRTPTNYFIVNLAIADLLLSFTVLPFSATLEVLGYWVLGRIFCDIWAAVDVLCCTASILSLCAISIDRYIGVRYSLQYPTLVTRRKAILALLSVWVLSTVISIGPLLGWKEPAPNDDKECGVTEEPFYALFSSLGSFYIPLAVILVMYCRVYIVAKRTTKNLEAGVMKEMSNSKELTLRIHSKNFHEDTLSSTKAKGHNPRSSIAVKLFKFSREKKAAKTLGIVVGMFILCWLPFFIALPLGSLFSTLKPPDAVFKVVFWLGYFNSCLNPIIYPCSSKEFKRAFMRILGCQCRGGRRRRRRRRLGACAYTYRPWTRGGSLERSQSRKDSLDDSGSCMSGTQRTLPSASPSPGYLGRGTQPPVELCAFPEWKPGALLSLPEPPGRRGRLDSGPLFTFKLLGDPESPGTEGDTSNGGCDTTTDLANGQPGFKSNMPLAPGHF
Procedure, shortened: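 Incubation ran 60 min at 25 °C in Tris-HCl buffer (50 mM, pH 7.4, 0.5 mM EDTA) with Wistar rat liver α1B receptor. 10 μM phentolamine set non-specific binding.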

[4] = 0.03 μM compound, read-out: Percentage inhibition of ligand binding, Adrenergic α2B
[5] = 0.1 μM compound, read-out: Percentage inhibition of ligand binding, Adrenergic α2A
[6] = 0.1 μM compound, read-out: Percentage inhibition of ligand binding, Adrenergic α1B
[7] = compound at 0.03 μM, [3H]Rauwolscine, repeat assays, each datapoint shown
[8] = compound at 0.1 μM, [3H]MK-912, repeat assays, each datapoint shown
[9] = compound at 0.1 μM, [3H]Prazosin, repeat assays, each datapoint shown
[10] = compound at 0.03 μM, [3H]Rauwolscine, repeat datapoints each shown
[11] = compound at 0.1 μM, [3H]MK-912, repeat datapoints each shown
[12] = compound at 0.1 μM, [3H]Prazosin, repeat datapoints each shown

Compound: Cc1ccc2c(c1)c1c(n2CC(C)(c2cnccn2)N(C)C)CCN2CCCC12 (single isomer, unassigned) [II-6b, dimethyl-[1-methyl-2-(9-methyl-1,2,3,4,5,10c-hexahydro-3a,6-diaza-cyclopenta[c]fluoren-6-yl)-1-pyrazin-2-yl-ethyl]-amine]
- Percentage inhibition of ligand binding, Adrenergic α2B ([1]; 0.03 μM compound): 102%
- Percentage inhibition of ligand binding, Adrenergic α2A ([2]; 0.1 μM compound): 81%
- Percentage inhibition of ligand binding, Adrenergic α1B ([3]; 0.1 μM compound): 91%

Compound: CN1CCc2c(c3cc(Cl)ccc3n2CC(C)(O)c2cccnc2)C1 (centres unmarked) [31b]
- inhibition at 0.03 µM ([1]; compound at 0.03 μM, [3H]Rauwolscine, repeat assays, each datapoint shown, read-out: Percentage inhibition of ligand binding, Adrenergic α2B): 36%
- inhibition at 0.1 µM ([2]; compound at 0.1 μM, [3H]MK-912, repeat assays, each datapoint shown, read-out: Percentage inhibition of ligand binding, Adrenergic α2A): 14%
- inhibition at 0.1 µM ([3]; compound at 0.1 μM, [3H]Prazosin, repeat assays, each datapoint shown, read-out: Percentage inhibition of ligand binding, Adrenergic α1B): 3%

Compound: CN1CCc2c(c3cccc(Cl)c3n2CC(C)(O)c2cccnc2)C1 (single isomer, unassigned) [57b, 1-(6-chloro-2-methyl-1,2,3,4-tetrahydro-pyrido[4,3-b]indol-5-yl)-2-pyridin-3-yl-propan-2-ol]
- Percentage inhibition of ligand binding, Adrenergic α2B [1, 7]: 84%
- Percentage inhibition of ligand binding, Adrenergic α2A [2, 8]: 24%
- Percentage inhibition of ligand binding, Adrenergic α1B [3, 9]: 9%

Compound: Cc1cnc2c(c1)c1c(n2CC(C)(O)c2ccc(F)cc2)CCN2CCCC12 (single isomer, unassigned) [II-149a, 2-(4-fluoro-phenyl)-1-(9-methyl-1,2,3,4,5,10c-hexahydro-3a,6,7-triazacyclopenta[c]fluoren-6-yl)-propan-2-ol]
- Percentage inhibition of ligand binding, Adrenergic α2B (0.03 μM) [1, 10]: 104%
- Percentage inhibition of ligand binding, Adrenergic α2A (0.1 μM) [2, 11]: 53%
- Percentage inhibition of ligand binding, Adrenergic α1B (0.1 μM) [3, 12]: 90%

Compound: OC(Cn1c2c(c3ccccc31)C1CCC(C2)N1)c1ccncc1 (centres unmarked) [II-85]
- inhibition at 0.03 µM [1, 4]: -2%
- inhibition at 0.1 µM [2, 5]: 15%
- inhibition at 0.1 µM [3, 6]: -7%

Second part, the compound after the results:

- inhibition at 0.03 µM [1, 4]: 25%
- inhibition at 0.1 µM [2, 5]: 12%
- inhibition at 0.1 µM [3, 6]: 10%
Compound: Cc1ccc2c(c1)c1c(n2CC(O)c2ccncc2)CCN(CC(=O)O)C1 (centres unmarked) [II-65, [5-(2-hydroxy-2-pyridin-4-yl-ethyl)-8-methyl-1,3,4,5-tetrahydro-pyrido[4,3-b]indol-2-yl]-acetic acid]

- Percentage inhibition of ligand binding, Adrenergic α2B [1, 7]: 40%
- Percentage inhibition of ligand binding, Adrenergic α2A [2, 8]: 10%
- Percentage inhibition of ligand binding, Adrenergic α1B [3, 9]: 58%
Compound: Cc1ccc2c(c1)c1c(n2CC(O)c2ccncc2)CCN2CCCCC12 (single isomer, unassigned) [47a]

- Percentage inhibition of ligand binding, Adrenergic α2B (0.03 μM) [1, 10]: 101%
- Ki ([1]; read-out: Ki α2B): 2.36 nM
- inhibition at 0.03 µM ([1]; read-out: Percentage inhibition of ligand binding, Adrenergic α2B (0.03 μM), compound at 0.03 μM, [3H]Rauwolscine, repeat datapoints each shown): 88%
- inhibition at 0.1 µM ([2]; read-out: Percentage inhibition of ligand binding, Adrenergic α2A (0.1 μM), compound at 0.1 μM, [3H]MK-912, repeat datapoints each shown): 16%
- inhibition at 0.1 µM ([3]; read-out: Percentage inhibition of ligand binding, Adrenergic α1B (0.1 μM), compound at 0.1 μM, [3H]Prazosin, repeat datapoints each shown): 17%
Compound: Cc1ccc2c(c1)c1c(n2CC(O)c2ccc(C(N)=O)cc2)CCN(C)C1 (single isomer, unassigned) [139a, 4-[2-(2,8-dimethyl-1,2,3,4-tetrahydro-pyrido[4,3-b]indol-5-yl)-1-hydroxy-ethyl]-benzamide]

- Percentage inhibition of ligand binding, Adrenergic α2B [1, 7]: 50%
- Percentage inhibition of ligand binding, Adrenergic α2A [2, 8]: 10%
- Percentage inhibition of ligand binding, Adrenergic α1B [3, 9]: 10%
Compound: Cc1ccc2c(c1)c1c(n2CC(O)c2cccnc2)CCNC1 (single isomer, unassigned) [9b, 2-(8-methyl-1,2,3,4-tetrahydro-pyrido[4,3-b]indol-5-yl)-1-pyridin-3-yl-ethanol]

- Percentage inhibition of ligand binding, Adrenergic α2B ([1]; 0.03 μM compound): 53%
- Percentage inhibition of ligand binding, Adrenergic α2A ([2]; 0.1 μM compound): 22%
- Percentage inhibition of ligand binding, Adrenergic α1B ([3]; 0.1 μM compound): 9%
Compound: Cc1ccc2c(c1)c1c(n2CC(N)c2ccc(F)cc2)CCN(C)C1 (single isomer, unassigned) [II-11a, 2-(2,8-dimethyl-3,4-dihydro-1H-pyrido[4,3-b]indol-5(2H)-yl)-1-(4-fluorophenyl)ethanamine]

- Percentage inhibition of ligand binding, Adrenergic α2B [1, 7]: 32%
- Percentage inhibition of ligand binding, Adrenergic α2A [2, 8]: 19%
- Percentage inhibition of ligand binding, Adrenergic α1B [3, 9]: 13%
Compound: CN1Cc2c(n(CC(O)c3ccncc3)c3ncccc23)C(C)(C)C1 (single isomer, unassigned) [17a, 1-pyridin-4-yl-2-(6,8,8-trimethyl-5,6,7,8-tetrahydro-1,6,9-triaza-fluoren-9-yl)-ethanol]

- Percentage inhibition of ligand binding, Adrenergic α2B (0.03 μM) [1, 10]: 36%
- Percentage inhibition of ligand binding, Adrenergic α2A (0.1 μM) [2, 11]: 71%
- Percentage inhibition of ligand binding, Adrenergic α1B (0.1 μM) [3, 12]: 76%
Compound: CCN1CCc2c(c3cc(C)ccc3n2CC(O)c2ccc(C)cc2)C1 (single isomer, unassigned) [203a]

Reference: patent US8791132B2, “Compounds and methods for treatment of hypertension” (Medivation Technologies, Inc., priority 2011, dated 2014)
